Data as given in PubChem BioAssay (NCI).
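At the GI50, growth is halved. Definition used: TGI = concentration required for complete inhibition of growth.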

Key:
Assay in all cases: DTP human tumour cell line panel, 384-well format
A498 renal = system: A498 renal
A549 NSCLC = system: A549 NSCLC
ACHN renal = system: ACHN renal
BT-549 breast = system: BT-549 breast
CAKI-1 renal = system: CAKI-1 renal
COLO 205 colon = system: COLO 205 colon
DU-145 prostate = system: DU-145 prostate
EKVX NSCLC = system: EKVX NSCLC
HCC-2998 colon = system: HCC-2998 colon
HCT-116 colon = system: HCT-116 colon
HCT-15 colon = system: HCT-15 colon
HL-60(TB) leukemia = system: HL-60(TB) leukemia
HOP-62 NSCLC = system: HOP-62 NSCLC
HOP-92 NSCLC = system: HOP-92 NSCLC
HS 578T breast = system: HS 578T breast
HT29 colon = system: HT29 colon
IGROV1 ovarian = system: IGROV1 ovarian
KM12 colon = system: KM12 colon
LOX IMVI melanoma = system: LOX IMVI melanoma
M14 melanoma = system: M14 melanoma
MALME-3M melanoma = system: MALME-3M melanoma
MCF7 breast = system: MCF7 breast
MDA-MB-231 breast = system: MDA-MB-231 breast
MDA-MB-435 melanoma = system: MDA-MB-435 melanoma
MDA-MB-468 breast = system: MDA-MB-468 breast
MOLT-4 leukemia = system: MOLT-4 leukemia
NCI-H226 lung = system: NCI-H226 lung
NCI-H23 lung = system: NCI-H23 lung
NCI-H322M lung = system: NCI-H322M lung
NCI-H460 NSCLC = system: NCI-H460 NSCLC
NCI-H522 lung = system: NCI-H522 lung
NCI/ADR-RES ovarian = system: NCI/ADR-RES ovarian
OVCAR-3 ovarian = system: OVCAR-3 ovarian
OVCAR-4 ovarian = system: OVCAR-4 ovarian
OVCAR-5 ovarian = system: OVCAR-5 ovarian
OVCAR-8 ovarian = system: OVCAR-8 ovarian
PC-3 prostate = system: PC-3 prostate
RPMI-8226 leukemia = system: RPMI-8226 leukemia
RXF 393 renal = system: RXF 393 renal
SF-268 CNS = system: SF-268 CNS
SF-295 CNS = system: SF-295 CNS
SF-539 CNS = system: SF-539 CNS
SK-MEL-28 melanoma = system: SK-MEL-28 melanoma
SK-MEL-5 melanoma = system: SK-MEL-5 melanoma
SK-OV-3 ovarian = system: SK-OV-3 ovarian
SN12C renal = system: SN12C renal
SNB-19 CNS = system: SNB-19 CNS
SNB-75 CNS = system: SNB-75 CNS
SR leukemia = system: SR leukemia
T-47D breast = system: T-47D breast
TK-10 renal = system: TK-10 renal
U251 glioblastoma = system: U251 glioblastoma
UACC-257 melanoma = system: UACC-257 melanoma
UACC-62 melanoma = system: UACC-62 melanoma

CNC(=O)c1cc(COc2nnc(Nc3ccc(Cl)cc3)c3ccoc23)ccn1
GI50 (A498 renal): 9.38 µM | TGI (A498 renal): 21.3 µM | GI50 (A549 NSCLC): 5.43 µM | TGI (A549 NSCLC): 19.1 µM | GI50 (ACHN renal): 11.1 µM | TGI (ACHN renal): 25.5 µM | GI50 (BT-549 breast): 9.44 µM | TGI (BT-549 breast): 21.9 µM | GI50 (CAKI-1 renal): 3.38 µM | TGI (CAKI-1 renal): 11.7 µM | GI50 (COLO 205 colon): 20 µM | TGI (COLO 205 colon): 37.2 µM | GI50 (DU-145 prostate): 12.4 µM | TGI (DU-145 prostate): 25.2 µM | GI50 (EKVX NSCLC): 13.6 µM | TGI (EKVX NSCLC): 26.8 µM | GI50 (HCC-2998 colon): 11.1 µM | TGI (HCC-2998 colon): 30 µM | GI50 (HCT-116 colon): 4.08 µM | TGI (HCT-116 colon): 14.9 µM | GI50 (HCT-15 colon): 11.8 µM | TGI (HCT-15 colon): 27.3 µM | GI50 (HL-60(TB) leukemia): > 100 µM | TGI (HL-60(TB) leukemia): > 100 µM | GI50 (HOP-62 NSCLC): 4.89 µM | TGI (HOP-62 NSCLC): 15.5 µM | GI50 (HOP-92 NSCLC): 4.23 µM | TGI (HOP-92 NSCLC): 14.2 µM | GI50 (HS 578T breast): 2.73 µM | TGI (HS 578T breast): 8.17 µM | GI50 (HT29 colon): 2.4 µM | TGI (HT29 colon): 5.67 µM | GI50 (IGROV1 ovarian): 12.2 µM | TGI (IGROV1 ovarian): 26.7 µM | GI50 (KM12 colon): 3.29 µM | TGI (KM12 colon): 8.84 µM | GI50 (LOX IMVI melanoma): 18.6 µM | TGI (LOX IMVI melanoma): 43.8 µM | GI50 (M14 melanoma): 19.3 µM | TGI (M14 melanoma): 38.6 µM | GI50 (MALME-3M melanoma): 5.69 µM | TGI (MALME-3M melanoma): 18 µM | GI50 (MCF7 breast): 4.71 µM | TGI (MCF7 breast): 17.6 µM | GI50 (MDA-MB-231 breast): 4.69 µM | TGI (MDA-MB-231 breast): 18.3 µM | GI50 (MDA-MB-435 melanoma): 19.1 µM | TGI (MDA-MB-435 melanoma): 37.5 µM | GI50 (MDA-MB-468 breast): 2.29 µM | TGI (MDA-MB-468 breast): 4.86 µM | GI50 (MOLT-4 leukemia): 34.8 µM | TGI (MOLT-4 leukemia): > 100 µM | GI50 (NCI-H226 lung): 15.2 µM | TGI (NCI-H226 lung): 29.5 µM | GI50 (NCI-H23 lung): 2.45 µM | TGI (NCI-H23 lung): 5.19 µM | GI50 (NCI-H322M lung): 11.9 µM | TGI (NCI-H322M lung): 25.1 µM | GI50 (NCI-H460 NSCLC): 8.81 µM | TGI (NCI-H460 NSCLC): 21 µM | GI50 (NCI-H522 lung): 5.23 µM | TGI (NCI-H522 lung): 17 µM | GI50 (NCI/ADR-RES ovarian): 8.44 µM | TGI (NCI/ADR-RES ovarian): 20.8 µM | GI50 (OVCAR-3 ovarian): 14.3 µM | TGI (OVCAR-3 ovarian): 27.9 µM | GI50 (OVCAR-4 ovarian): 5.31 µM | TGI (OVCAR-4 ovarian): 16.6 µM | GI50 (OVCAR-5 ovarian): 21.9 µM | TGI (OVCAR-5 ovarian): 40.2 µM | GI50 (OVCAR-8 ovarian): 1.96 µM | TGI (OVCAR-8 ovarian): 3.68 µM | GI50 (PC-3 prostate): 11.3 µM | TGI (PC-3 prostate): 25.5 µM | GI50 (RPMI-8226 leukemia): 14.1 µM | TGI (RPMI-8226 leukemia): 39.9 µM | GI50 (RXF 393 renal): 2.84 µM | TGI (RXF 393 renal): 8.62 µM | GI50 (SF-268 CNS): 3.03 µM | TGI (SF-268 CNS): 8.04 µM | GI50 (SF-295 CNS): 2.4 µM | TGI (SF-295 CNS): 5.78 µM | GI50 (SF-539 CNS): 1.49 µM | TGI (SF-539 CNS): 3.07 µM | GI50 (SK-MEL-28 melanoma): 5.17 µM | TGI (SK-MEL-28 melanoma): 17.6 µM | GI50 (SK-MEL-5 melanoma): 8.37 µM | TGI (SK-MEL-5 melanoma): 20.7 µM | GI50 (SK-OV-3 ovarian): 2.8 µM | TGI (SK-OV-3 ovarian): 9.01 µM | GI50 (SN12C renal): 12.9 µM | TGI (SN12C renal): 31.7 µM | GI50 (SNB-19 CNS): 13.1 µM | TGI (SNB-19 CNS): 26 µM | GI50 (SNB-75 CNS): 3.09 µM | TGI (SNB-75 CNS): 11 µM | GI50 (SR leukemia): 2.5 µM | TGI (SR leukemia): 4.87 µM | GI50 (T-47D breast): 15.4 µM | TGI (T-47D breast): 46.9 µM | GI50 (TK-10 renal): 10.3 µM | TGI (TK-10 renal): 22.3 µM | GI50 (U251 glioblastoma): 10.2 µM | TGI (U251 glioblastoma): 21.9 µM | GI50 (UACC-257 melanoma): 7.95 µM | TGI (UACC-257 melanoma): 20.8 µM | GI50 (UACC-62 melanoma): 3.51 µM | TGI (UACC-62 melanoma): 12.2 µM
